Measurements published in US8211929B2, “Pyrimidine derivatives as kinase modulators and method of use” (Exelixis, Inc., priority 2004, dated 2012).
Like-named read-outs stand apart in the source and are kept apart here.

Experiments:
[1] = target: T1, (Homo sapiens, UniProt P08069); test: IGF1R kinase assay (LCCA), IGF 0P; type: biochemical
T1 construct: human IGF1R kinase domain residues M954-C1367; made in house; host or cells: baculovirus expression (insect cells)
Experimental: (§1) Kinase activity and compound inhibition are investigated using one or more of the three assay formats described below. The ATP concentrations for each assay are selected to be close to the Michaelis-Menten constant (KM) for each individual kinase. Dose-response experiments are performed at 10 different inhibitor concentrations in a 384-well plate format. […] Y=Min+(Max−Min)/(1+(X/IC50)^H) Equation (2)
(§2) IGF1R kinase biochemical activity was assessed using a Luciferase-Coupled Chemiluminescent Kinase assay (LCCA) format. Kinase activity was measured as the percent ATP remaining following the kinase reaction. Remaining ATP was detected by luciferase-luciferin-coupled chemiluminescence. Specifically, the reaction was initiated by mixing test compounds, 3 μM ATP, 4 μM poly EY peptide and 4 nM IGF1R (baculovirus expressed human IGF1R kinase domain residues M954-C1367) in a 20 uL assay buffer (20 mM Tris-HCL pH7.5, 10 mM MgCl2, 0.02% Triton X-100, 1 mM DTT, 2 mM MnCl2). The mixture is incubated at ambient temperature for 2 hours after which 20 uL luciferase-luciferin mix is added and the chemiluminescent signal read using a Wallac Victor^2 reader.

[2] = target: T2, IGF 3P (Homo sapiens, UniProt P08069); test: IGF1R kinase assay (LCCA), IGF 3P; type: biochemical
T2 construct: human IGF1R kinase domain residues M954-C1367; made in house; host or cells: baculovirus expression (insect cells)
Experimental: as §1, §2

T1 sequence (P08069 954-1367): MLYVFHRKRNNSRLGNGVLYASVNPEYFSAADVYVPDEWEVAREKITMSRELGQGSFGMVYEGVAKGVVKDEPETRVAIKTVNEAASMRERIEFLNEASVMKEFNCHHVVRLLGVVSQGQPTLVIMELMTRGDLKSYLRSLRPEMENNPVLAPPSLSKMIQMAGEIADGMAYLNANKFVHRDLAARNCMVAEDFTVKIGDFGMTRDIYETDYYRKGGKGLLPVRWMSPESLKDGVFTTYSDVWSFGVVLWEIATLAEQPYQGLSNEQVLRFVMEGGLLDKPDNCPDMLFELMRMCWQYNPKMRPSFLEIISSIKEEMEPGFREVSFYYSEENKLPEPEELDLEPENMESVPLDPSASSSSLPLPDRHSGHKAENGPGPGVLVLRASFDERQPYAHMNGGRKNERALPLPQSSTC
T2 sequence (P08069 954-1367): as above

| Compound | IC50 ([1]; IGF1R kinase LCCA assay) | IC50 ([2]; IGF1R kinase LCCA assay) | other results |
| --- | --- | --- | --- |
| CC(=O)NCC=CCn1cc(-c2cccc(OCc3ccccc3)c2)c2c(N)ncnc21 [Example 345] |  |  | IC50 ([1]; IGF1R kinase LCCA assay, IGF 0P): > 5000 nM; IC50 ([2]; IGF1R kinase LCCA assay, IGF 3P): 500 to 5000 nM |
| Brc1cnc(NC(Cc2ccccc2)c2ccccc2)nc1Nc1cc(C2CC2)[nH]n1 (stereo not shown) [Example 333] | > 5000 nM | > 5000 nM |  |
| Brc1ccc(Br)c(Nc2ncc(Br)c(Nc3cc(C4CC4)n[nH]3)n2)c1 [Example 172] | 50 to 500 nM | 500 to 5000 nM |  |
| Cc1cc(C)cc(Nc2nc(C)cc(Nc3cc(C4CC4)n[nH]3)n2)c1 [Example 270] | 500 to 5000 nM | > 5000 nM |  |
| Cc1cc(Nc2cc(C3CC3)n[nH]2)nc(Nc2ccc(N(C)C)cc2)n1 [Example 213] | 500 to 5000 nM | 500 to 5000 nM |  |
| Nc1ncnc2c1c(-c1cccc(OCc3ccccc3)c1)cn2CC1CC2CN(C(=O)OCc3ccccc3)CC2C1 (stereo not shown) [Example 356] | > 5000 nM | > 5000 nM |  |
| COc1ccc(C)cc1Nc1ncc(Br)c(Nc2cc(C3CC3)[nH]n2)n1 [Example 147] | 500 to 5000 nM | 50 to 500 nM |  |
| Cc1cc(Nc2cc(C3CC3)n[nH]2)nc(Nc2ccc3cc(C(=O)NCCN4CCCC4)sc3c2)n1 [Example 173] | 500 to 5000 nM | 500 to 5000 nM |  |
| CCN(CC)CCNC(=O)c1cc(Nc2cc(C3CC3)[nH]n2)nc(NCc2cc(-c3ccccc3)no2)n1 [Example 530] | 50 to 500 nM | < 50 nM |  |
| c1ccc(-c2cc(CNc3nc(Nc4cc(C5CC5)[nH]n4)cc(N4CCOCC4)n3)on2)nc1 [Example 612, N^4-(5-cyclopropyl-1H-pyrazol-3-yl)-6-morpholin-4-yl-N^2-[(3-pyridin-2-ylisoxazol-5-yl)methyl]pyrimidine-2,4-diamine] |  |  | IC50 [1]: 50 to 500 nM; IC50 [2]: < 50 nM |
| Brc1cnc(NCCC(c2ccccc2)c2ccccc2)nc1Nc1cc(C2CC2)[nH]n1 [Example 328] | > 5000 nM | > 5000 nM |  |
| Cc1cc(Nc2cc(C3CC3)n[nH]2)nc(Nc2ccc(CCNC(=O)OC(C)(C)C)cc2)n1 [Example 568] | 500 to 5000 nM | 500 to 5000 nM |  |
| c1ncc(-c2cc(CNc3nc(Nc4cc(C5CC5)n[nH]4)cc(N4CCOCC4)n3)on2)cn1 [Example 643, N^4-(3-cyclopropyl-1H-pyrazol-5-yl)-6-morpholin-4-yl-N^2-[(3-pyrimidin-5-ylisoxazol-5-yl)methyl]pyrimidine-2,4-diamine] |  |  | IC50 [1]: 50 to 500 nM; IC50 [2]: 50 to 500 nM |
| CC(C)c1cc(CNc2nc(Nc3cc(C4CC4)[nH]n3)cc(N3CCN(S(C)(=O)=O)CC3)n2)on1 [Example 615, N^4-(5-cyclopropyl-1H-pyrazol-3-yl)-N^2-{[3-(1-methylethyl)isoxazol-5-yl]methyl}-6-[4-(methylsulfonyl)piperazin-1-yl]pyrimidine-2,4-diamine] |  |  | IC50 [1]: 50 to 500 nM; IC50 [2]: < 50 nM |
| Clc1ccccc1Nc1ncc(Br)c(Nc2cc[nH]n2)n1 [Example 192] | 500 to 5000 nM | 500 to 5000 nM |  |
| Nc1nc(C2CC2)nn1-c1nc(Nc2ccc(N3CCOCC3)cc2)ncc1Br [Example 284] | > 5000 nM | > 5000 nM |  |
| N#Cc1ccc(Nc2ncc(Cl)c(Nc3cc(C4CC4)[nH]n3)n2)cc1 [Example 117] | 50 to 500 nM | 50 to 500 nM |  |
| CC(C)(C)c1cc(Nc2nc(NCc3cc(-c4ccccc4)no3)ncc2Br)n[nH]1 [Example 16] | 50 to 500 nM | 500 to 5000 nM |  |
| NS(=O)(=O)c1ccc(Nc2ncc(Br)c(Nc3cc(C4CC4)n[nH]3)n2)cc1 [Example 91] | 50 to 500 nM | 50 to 500 nM |  |
| Cc1cc(Nc2cc(N3CCN(C)CC3)nc(NCc3cc(C)no3)n2)[nH]n1 [Example 626, N^2-[(3-methylisoxazol-5-yl)methyl]-6-(4-methylpiperazin-1-yl)-N^4-(3-methyl-1H-pyrazol-5-yl)pyrimidine-2,4-diamine] |  |  | IC50 [1]: 500 to 5000 nM; IC50 [2]: 50 to 500 nM |
| Brc1cnc(NCc2nccs2)nc1Nc1cc(C2CC2)[nH]n1 [Example 179] | 500 to 5000 nM | 500 to 5000 nM |  |

| Compound | IC50 ([1]; IGF1R kinase LCCA assay) | IC50 ([2]; IGF1R kinase LCCA assay) | other results |
| --- | --- | --- | --- |
| CN1CCN(C(=O)Cc2ccc(Nc3ncc(Br)c(Nc4cc(C5CC5)n[nH]4)n3)cc2)CC1 [Example 37] | 500 to 5000 nM | 50 to 500 nM |  |
| CCN(CC)CCCNc1cc(Nc2cc(C3CC3)[nH]n2)nc(NCc2cc(-c3ccccc3)no2)n1 [Example 42] | 50 to 500 nM | < 50 nM |  |
| CN1CCN(C(=O)CCc2ccc(Nc3ncc(Br)c(Nc4cc(C5CC5)[nH]n4)n3)cc2)CC1 [Example 85] | 500 to 5000 nM | 50 to 500 nM |  |
| Cc1cc(CNc2nc(Nc3cc(C4CC4)[nH]n3)cc(NC3CC4CCC(C3)N4C)n2)on1 (stereo not shown) [Example 630, N^4-(5-cyclopropyl-1H-pyrazol-3-yl)-N^6-(8-methyl-8-azabicyclo[3.2.1]oct-3-yl)-N^2-[(3-methylisoxazol-5-yl)methyl]pyrimidine-2,4,6-triamine] |  |  | IC50 [1]: 50 to 500 nM; IC50 [2]: < 50 nM |
| CN1CCN(c2cc(Nc3cc(C4CC4)[nH]n3)nc(NCc3cc(-c4cccs4)no3)n2)CC1 [Example 640, N^4-(5-cyclopropyl-1H-pyrazol-3-yl)-6-(4-methylpiperazin-1-yl)-N^2-{[3-(2-thienyl)isoxazol-5-yl]methyl}pyrimidine-2,4-diamine] |  |  | IC50 [1]: 50 to 500 nM; IC50 [2]: < 50 nM |
| c1cc(Nc2cc(C3CC3)[nH]n2)nc(NCc2cc(C3CCCCC3)no2)n1 [Example 129] | 500 to 5000 nM | 50 to 500 nM |  |
| Cc1cc(Nc2cc(OCCN(C)C)nc(NCc3cc(C)no3)n2)[nH]n1 [Example 650, 6-{[2-(dimethylamino)ethyl]oxy}-N^2-[(3-methylisoxazol-5-yl)methyl]-N^4-(3-methyl-1H-pyrazol-5-yl)pyrimidine-2,4-diamine] |  |  | IC50 [1]: 500 to 5000 nM; IC50 [2]: 500 to 5000 nM |
| Nc1cccc(Nc2nc(NCc3cc(-c4ccccc4)no3)ncc2Br)n1 [Example 291] | > 5000 nM | > 5000 nM |  |
| NC(=O)c1ccc(Oc2ncc(Br)c(Nc3cc(C4CC4)n[nH]3)n2)cc1 [Example 158] | 500 to 5000 nM | 500 to 5000 nM |  |
| CN(C)C(=O)Oc1cccc(Nc2ncc(Br)c(Nc3cc(C4CC4)n[nH]3)n2)c1 [Example 35] | 50 to 500 nM | 50 to 500 nM |  |
| Clc1cccc(-c2ncc(CNc3ncc(Br)c(Nc4cc(C5CC5)[nH]n4)n3)s2)c1 [Example 290] | > 5000 nM | > 5000 nM |  |
| CC(C)c1cc(CNc2nc(Nc3cc(C4CC4)n[nH]3)cc(N3CCN(CCO)CC3)n2)on1 [Example 663, 2-(4-{6-[(3-cyclopropyl-1H-pyrazol-5-yl)amino]-2-({[3-(1-methylethyl)isoxazol-5-yl]methyl}amino)pyrimidin-4-yl}piperazin-1-yl)ethanol] |  |  | IC50 [1]: 50 to 500 nM; IC50 [2]: < 50 nM |
| Cc1cc(Nc2cc(C3CC3)n[nH]2)nc(NCc2nc(C(=O)NCCc3cccc(Cl)c3)cs2)n1 [Example 570] | 500 to 5000 nM | 500 to 5000 nM |  |
| CCc1cc(CNc2nc(Nc3cc(C4CC4)n[nH]3)cc(N3CCOCC3)n2)on1 [Example 656, N^4-(3-cyclopropyl-1H-pyrazol-5-yl)-N^2-[(3-ethylisoxazol-5-yl)methyl]-6-morpholin-4-ylpyrimidine-2,4-diamine] |  |  | IC50 [1]: 50 to 500 nM; IC50 [2]: < 50 nM |
| Cc1cc(Nc2cc(C3CC3)[nH]n2)nc(NCc2ccc(-c3ccc(Cl)cc3)s2)n1 [Example 562] | 500 to 5000 nM | 500 to 5000 nM |  |
| CN1CCN(C(=O)CCc2cccc(Nc3ncc(Br)c(Nc4cc(C5CC5)n[nH]4)n3)c2)CC1 [Example 100] | 500 to 5000 nM | 50 to 500 nM |  |
| Brc1cnc(Nc2ccc(-c3ccccc3)cc2)nc1Nc1cc(C2CC2)[nH]n1 [Example 322] | > 5000 nM | > 5000 nM |  |
| c1ccc(CN2CCc3c(nc(Nc4ccc(N5CCOCC5)cc4)nc3Nc3cc(C4CC4)[nH]n3)C2)cc1 [Example 281] | > 5000 nM | > 5000 nM |  |
| Brc1cnc(N2CCOCC2)nc1Nc1cc(C2CC2)[nH]n1 [Example 200] | > 5000 nM | 500 to 5000 nM |  |
| CCc1cc(CNc2nc(Nc3cc(C4CC4)n[nH]3)cc(N3CCN(C)CC3)n2)on1 [Example 655, N^4-(3-cyclopropyl-1H-pyrazol-5-yl)-N^2-[(3-ethylisoxazol-5-yl)methyl]-6-(4-methylpiperazin-1-yl)pyrimidine-2,4-diamine] |  |  | IC50 [1]: 50 to 500 nM; IC50 [2]: < 50 nM |
